What was measured:
[1] = system: Coprococcus; assay: In vitro intestinal batch fermentation with human fecal suspension; 16S rRNA Illumina sequencing; assay type: cell-based; conditions: fermentation supernatant at 24 h, versus control
Procedure: At the start of this intestinal batch fermentation incubation, all test ingredients were added from stock solutions to the modified nutritional medium, containing (g/l): 2.5 K2HPO4, 10.9 KH2PO4, 2 NaHCO3, 2 yeast extract, 2 peptone, 1 mucin, 0.5 cysteine, 2 Tween 80, 2 glucose, 2 starch, 2 cellobiose, 0.1 NaCl, 0.01 MgSO4.7H2O, 0.01 CaCl2.6H2O, 0.05 hemin, 0.5 bile salts.
The following compounds were added from stock solutions prepared in water: • Beta-carotene, • Vitamin B3, • Vitamin B5, • Vitamin B7, • Fructooligosaccharides Fructooligosaccharides are included as a positive control.
As a source of the microbial community, freshly prepared fecal suspension from a human donor was added to the reactors. […] All tests, except the blanks, were performed in single repetition. Incubation conditions were 48 h at 37° C., under shaking (90 rpm) and anaerobic conditions.
Microbial composition: Illumina sequencing was performed at the start and after 24 h of incubation. The technique targets the16S rRNA gene that consists of variable and conserved regions, spread over the gene. Due to their key role in protein expression, the conserved regions are characterized by very low evolutionary rates.
The methodology applied involves primers that span 2 hypervariable regions (V3-V4) of the 16S rRNA gene. Using a pair-end sequencing approach, sequencing of 2×250 bp results in 424 bp amplicons. Such fragments are taxonomically more informative as compared to smaller fragments. In brief, mothur (v. 1.42.0) was used to assemble reads into contigs, perform alignment-based quality filtering (alignment to the mothur-reconstructed SILVA SEED alignment, v. 123), remove chimeras, assign taxonomy using a naïve Bayesian classifier and SILVA NR v132 and cluster contigs into OTUs. All sequences classified as Eukaryota, Archaea, Chloroplasts and Mitochondria were removed, as well as sequences that could not be classified. For each OTU, representative sequences were selected as the most abundant sequence within that OTU.

[2] = system: Coprococcus; assay: Clinical study of colon-targeted vitamins; fecal relative abundance of Coprococcus by shotgun metagenomics; assay type: in vivo; conditions: human feces, colon-targeted delivery for four weeks, compared to baseline
Description: Twelve participants were allocated to each of the six vitamin groups, and 24 participants allocated to the placebo group. […] To be considered eligible for enrolment into the study, participants have to be able to give written informed consent; be aged between 20 and 50 years of age; have a BMI of between 18.5 - 30 Kg/m2; have a stable body weight (< 5% change) over the past 3-months; be in generally good health, as determined by the investigator; have not consumed dietary supplements, prebiotic, probiotic, dietary or fiber-rich supplements within 4 weeks prior to baseline visit and be willing to avoid these supplements until the end of the study; be willing to avoid liver consumption for the duration for the study, be willing to maintain their current level of physical activity for the duration of the study; and be willing to consume the IP daily for the duration of the study. Any participants who have a typical fiber intake >30 g/day; were pregnant or planning to become pregnant, have consumed disallowed medications; had made major dietary changes over the past three months or had planned major lifestyle changes; had taken part in a study within the previous 60 days; or had any ongoing or previous illness that the investigator deemed would impact on the objectives of the study were excluded. […] Each subject provided written informed consent before inclusion in the study.
At the final visit (Visit 3) participants retuned a fecal samples collected in the previous 48 hours. […] Participants returned their IP and compliance was assessed. […]

[3] = system: Coprococcus comes; assay: Clinical study of colon-targeted vitamins; fecal relative abundance of Coprococcus comes by shotgun metagenomics; assay type: in vivo; conditions: human feces, colon-targeted delivery for four weeks
Description: Twelve participants were allocated to each of the six vitamin groups, and 24 participants allocated to the placebo group. All 96 participants completed the intervention. To be considered eligible for enrolment into the study, participants have to be able to give written informed consent; be aged between 20 and 50 years of age; have a BMI of between 18.5 - 30 Kg/m2; have a stable body weight (< 5% change) over the past 3-months; be in generally good health, as determined by the investigator; have not consumed dietary supplements, prebiotic, probiotic, dietary or fiber-rich supplements within 4 weeks prior to baseline visit and be willing to avoid these supplements until the end of the study; be willing to avoid liver consumption for the duration for the study, be willing to maintain their current level of physical activity for the duration of the study; and be willing to consume the IP daily for the duration of the study. […]
The trial was a randomized, double-blind, placebo-controlled, parallel study in which subjects received either the vitamin supplement or placebo over four weeks. […] Before the randomization visit, participants food frequency questionnaires were analyzed to ensure their typical fiber intake is <30 g fiber/day. […]
At the baseline visit (Visit 2), participants retuned a fecal samples collected in the previous 48 hours and eligibility was assessed. […]

With `CC1=C(/C=C/C(C)=C/C=C/C(C)=C/C=C/C=C(C)/C=C/C=C(C)/C=C/C2=C(C)CCCC2(C)C)C(C)(C)CCC1` [beta-carotene, β-carotene] the Coprococcus relative abundance ([1]; dose 1x) was “increased” and the Coprococcus relative abundance ([1]; dose 5x) was “increased”.
With `NC(=O)c1cccnc1` [vitamin B3, Niacinamide] the Coprococcus relative abundance ([1]; doses 0.2x, 1x, 5x tested) was “no distinct increase”.
`CC(C)(CO)[C@@H](O)C(=O)NCCC(=O)O` [vitamin B5, Pantothenic acid] was tested, and the Coprococcus relative abundance ([1]; dose 0.2x) was “increased” and the Coprococcus relative abundance ([1]; dose 5x) was “increased”.
In the case of `O=C(O)CCCC[C@@H]1SC[C@@H]2NC(=O)N[C@@H]21` [vitamin B7, Biotin], the Coprococcus relative abundance ([1]; doses 0.2x, 1x, 5x tested) is reported as “no distinct increase”.
With `O=C1O[C@H]([C@@H](O)CO)C(O)=C1O` [vitamin C, ascorbic acid] the “relative abundance of Coprococcus” value [2] was “not”.
With `C=C1CC[C@H](O)C/C1=C/C=C1\CCC[C@]2(C)[C@@H]([C@H](C)CCCC(C)C)CC[C@@H]12` [vitamin D3, cholecalciferol] the “relative abundance of Coprococcus” value [2] was “trends for an increase”, the “Coprococcus comes relative abundance” value ([3]; compared to baseline (p = 0.04)) was “significant increase” and the “Coprococcus comes relative abundance” value ([3]; compared to placebo group (p = 0.028)) was “significant increase”.
With vitamin A the “relative abundance of Coprococcus” value [2] was “trends for an increase”.

— patent publication US20230255930A1, “METHOD OF INCREASING THE POPULATION OF COPROCOCCUS SPP. IN THE GUT MICROBIOME” (priority 2020, published 2023)
